Structures can show the parent of a compound that is named as a salt.
Tests used:
[1] = system: pooled Enterobacteriaceae isolates; test: Pharmacokinetic-pharmacodynamic analyses (Hill-type models) of the 400 mg ceftibuten dose-ranging studies; type: cell-based; conditions: 400 mg of ceftibuten, 24 hours
Protocol: Data from the avibactam dose-ranging studies, in combination with 400 mg q8h of ceftibuten, were evaluated using Hill models and non-linear least squares regression. All data was weighted using the inverse of the estimated measurement variance. […] The relationships between change in log10 CFU/mL and percent time above avibactam concentration thresholds (Ct) ranging from 0.125 mg/L to 2 mg/L were also evaluated.

[2] = human; cited from earlier work
[3] = Sprague-Dawley rats; cited from earlier work
E. coli ATCC 25922 = test: One-compartment in vitro infection (chemostat) model, E. coli ATCC 25922; type: cell-based, Escherichia coli
E. cloacae 4184 = test: One-compartment in vitro infection (chemostat) model, E. cloacae 4184; type: cell-based, Enterobacter cloacae; conditions: for Average Log10 CFU/mL (+/− Range of Data), 5 × Ceftibuten + Avibactam at 4 mg/L MIC: Ceftibuten 400 mg q8h
E. coli 136-4643 = test: One-compartment in vitro infection (chemostat) model, E. coli 136-4643; type: cell-based, Escherichia coli; conditions: E. coli 4643; for Average Log10 CFU/mL (+/− Range of Data), 5 × Ceftibuten + Avibactam at 4 mg/L MIC: Ceftibuten 400 mg q8h
[4] = system: ESBL-positive isolates (n = 28); type: cell-based, Enterobacteriaceae; conditions: ESBL n = 28; avibactam or clavulanic acid fixed at 4 μg/mL in combinations
[5] = system: OXA-positive isolates (n = 22); type: cell-based, Enterobacteriaceae; conditions: OXA n = 22; avibactam or clavulanic acid fixed at 4 μg/mL in combinations
[6] = system: KPC-positive isolates (n = 23); type: cell-based, Enterobacteriaceae; conditions: KPC n = 23; avibactam or clavulanic acid fixed at 4 μg/mL in combinations
[7] = system: pAmpC (PlasAmpC) isolates (n = 20); type: cell-based, Enterobacteriaceae; conditions: pAmpC n = 20; avibactam or clavulanic acid fixed at 4 μg/mL in combinations
314 Enterobacteriaceae = type: cell-based; conditions: all isolates combined; avibactam at a fixed concentration of 4 μg/mL
[8] = MIC determined using 4 mg/L of avibactam
[9] = MIC determined using 8 mg/L of avibactam
[10] = MIC determined using a 1:1 ratio of ceftibuten:avibactam

Compound: NC(=O)[C@@H]1CC[C@@H]2CN1C(=O)N2OS(=O)(=O)O [avibactam, [2S,5R]-2-carbamoyl-7-oxo-1,6-diazabicyclo[3.2.1]octan-6-yl hydrogen sulfate]
- Avibactam free-drug plasma % T > Concentration threshold value, target 1-log ([1]; Ct 0.5 mg/L of avibactam): 97.6%
- Avibactam free-drug plasma % T > Concentration threshold value, target 2-log ([1]; Ct 0.5 mg/L of avibactam): 98.2%
- Avibactam free-drug plasma % T > Concentration threshold value, target Stasis ([1]; Ct 0.5 mg/L of avibactam): 96.9%
- Avibactam free-drug plasma % T > Concentration threshold value, target 1-log ([1]; Ct 1 mg/L of avibactam): 85.2%
- Avibactam free-drug plasma % T > Concentration threshold value, target 2-log ([1]; Ct 1 mg/L of avibactam): 93.6%
- Avibactam free-drug plasma % T > Concentration threshold value, target Stasis ([1]; Ct 1 mg/L of avibactam): 76.0%
- Avibactam free-drug plasma % T > MIC value, target 1-log [1, 8]: 58.0%
- Avibactam free-drug plasma % T > MIC value, target 2-log [1, 8]: 66.3%
- Avibactam free-drug plasma % T > MIC value, target Stasis [1, 8]: 53.2%
- Avibactam free-drug plasma AUC:MIC value, target 1-log [1, 8]: 30.8
- Avibactam free-drug plasma AUC:MIC value, target 2-log [1, 8]: 34.2
- Avibactam free-drug plasma AUC:MIC value, target Stasis [1, 8]: 28.7
- Avibactam free-drug plasma % T > MIC value, target 1-log [1, 9]: 79.4%
- Avibactam free-drug plasma % T > MIC value, target 2-log [1, 9]: 80.4%
- Avibactam free-drug plasma % T > MIC value, target Stasis [1, 9]: 78.7%
- Avibactam free-drug plasma AUC:MIC value, target 1-log [1, 9]: 67.0
- Avibactam free-drug plasma AUC:MIC value, target 2-log [1, 9]: 128
- Avibactam free-drug plasma AUC:MIC value, target Stasis [1, 9]: 38.0
- Avibactam free-drug plasma % T > MIC value, target 1-log [1, 10]: 11.1%
- Avibactam free-drug plasma % T > MIC value, target 2-log [1, 10]: 22.7%
- Avibactam free-drug plasma % T > MIC value, target Stasis [1, 10]: 6.8%
- Avibactam free-drug plasma AUC:MIC value, target 1-log [1, 10]: 15.4
- Avibactam free-drug plasma AUC:MIC value, target 2-log [1, 10]: 17.1
- Avibactam free-drug plasma AUC:MIC value, target Stasis [1, 10]: 14.4
- oral bioavailability [2]: about 6 % F
- avibactam oral bioavailability (% F) [3]: 1.2 % F

Compound: Nc1nc(/C(=C/CC(=O)O)C(=O)N[C@@H]2C(=O)N3C(C(=O)O)=CCS[C@H]23)cs1 [ceftibuten, (6R,7R)-7-((Z)-2-(2-amino-4-thiazolyl)-4-carboxycrotonamido)-8-oxo-5-thia-1-azabicyclo(4.2.0)oct-2-ene-2-carboxylic acid]
- Reduction (bacterial burden) (E. coli ATCC 25922; Ceftibuten 267 mg TID, Avibactam 0 mg TID): 1-log
- ceftibuten % T>MIC required to achieve net bacterial stasis (E. coli ATCC 25922; administered every 8 hours): approximately 45%
- bacterial burden response at 24 hours (E. coli ATCC 25922; ceftibuten 3.75 mg to 75 mg q8h): net bacterial stasis
- bacterial burden response at 24 hours (E. coli ATCC 25922; ceftibuten 12.5 mg q8h): treatment failure
- bacterial burden response at 24 hours (E. coli ATCC 25922; ceftibuten 100 mg and 267 mg q8h): reductions in bacterial burden
- Average Log10 CFU/mL (+/− Range of Data), 5 × Ceftibuten + Avibactam at 4 mg/L MIC (E. cloacae 4184; 0 h): 0.99 (0.31) Log10 CFU/mL
- Average Log10 CFU/mL (+/− Range of Data), 5 × Ceftibuten + Avibactam at 4 mg/L MIC (E. cloacae 4184; 24 h): 1.68 (0.20) Log10 CFU/mL
- bacterial burden response over 24 hours (E. cloacae 4184; ceftibuten 200 mg q8h monotherapy): no activity
- bacterial burden response over 24 hours (E. cloacae 4184; ceftibuten 400 mg q8h monotherapy): did not reduce the bacterial burden
- Average Log10 CFU/mL (+/− Range of Data), 5 × Ceftibuten + Avibactam at 4 mg/L MIC (E. coli 136-4643; 0 h): 0 (0) Log10 CFU/mL
- Average Log10 CFU/mL (+/− Range of Data), 5 × Ceftibuten + Avibactam at 4 mg/L MIC (E. coli 136-4643; 24 h): 0 (0) Log10 CFU/mL
- bacterial burden response over 24 hours (E. coli 136-4643; ceftibuten 400 mg q8h monotherapy, first 4 hours, regrowth matching control by 12 hours): slight initial reduction in bacterial burden
- Estimated MIC90 [4]: >32 µg/mL
- Estimated MIC90 [5]: >32 µg/mL
- Estimated MIC90 [6]: >32 µg/mL
- Estimated MIC90 [7]: >32 µg/mL
- MIC90 with addition of avibactam (314 Enterobacteriaceae): 0.5 µg/mL

— US20210060033A1, “ORALLY ADMINISTERED COMBINATIONS OF BETA-LACTAM ANTIBIOTICS AND AVIBACTAM DERIVATIVES FOR TREATING BACTERIAL INFECTIONS” (priority 2019, published 2021)
